Data as given in US4000310A, “Pharmaceutical compositions containing 6-methyl-3,4-diphenyl-3,4,5,6-tetrahydro-2-pyrone or derivatives thereof” (Union Chimique Continentale-U.C.C, priority 1974, dated 1976).

How the values were obtained:
rat [1] = test: Amphetamine stereotypy test; type: in vivo, rat (male, Wistar Af stock); conditions: rat, 32, 64 or 128 mg/kg oral 60 min before amphetamine 2 mg/kg i.p.
Experimental: (§1) All the experiments described below were carried out using male rats weighing from 170 to 220 g (Wistar Af stock) and male mice weighing from 18 to 23 g (Swiss NMRI stock).

[2] = tested on: convulsion-inducing attacks; test: Interaction with convulsion-inducing dose of cardiazol; type: in vivo; conditions: 64 mg/kg oral 30 min before cardiazol 160 mg/kg s.c.
rat [3] = test: Apomorphine stereotypy test; type: in vivo, rat (male, Wistar Af stock); conditions: rat, 32, 64 or 128 mg/kg oral 60 min before apomorphine 0.5 mg/kg s.c.
Experimental: as §1

mice = test: Test for antireserpine action, mice; type: in vivo, mouse (male, Swiss NMRI stock); conditions: mice, 8, 16, 32 and 64 mg/kg oral; reserpine 2.5 mg/kg i.p. 4 hours before
Experimental: as §1

rats [4] = test: Test for antireserpine action, rats; type: in vivo, rat (male, Wistar Af stock); conditions: rats, 8, 16, 32 and 64 mg/kg oral; reserpine 2.5 mg/kg i.p. 4 hours before
Experimental: as §1

monoamine oxidase = test: Monoamine oxidase inhibition (tryptamine test); type: in vivo, rat (male, Wistar Af stock); conditions: rat, 64 mg/kg i.p.; tryptamine 3 mg/kg i.v.
Experimental: as §1
The dose of tryptamine given was insufficient to induce convulsions (3 mg/kg by intravenous injection).

rat [5] = test: Motor activity in the rat (actimeters with photoelectric cells); type: in vivo, rat (male, Wistar Af stock)
Experimental: as §1
Motor activity was determined with the aid of actimeters with photoelectric cells described by Tedeschi and Coll (J. Pharm. sci. 1964, 53, 1046-1049). A minimum of 10 animals were always used per point. They show a large increase in the motor activity of rats, which becomes significant from a dose of 32 mg/kg given orally.

rats [6] = test: Test of anticataleptic action (prochlorperazine catalepsy); type: in vivo, rat (male, Wistar Af stock); conditions: 16 or 64 mg/kg i.p. or oral, prochlorperazine 8 mg/kg i.p., homolateral paws, Buddha or elevator test
Experimental: as §1

[7] = 16 mg/kg orally 15 min before test
[8] = 32 mg/kg orally 15 min before test
[9] = 64 mg/kg orally 15 min before test
[10] = 128 mg/kg orally 15 min before test

Question: How did the “change in amphetamine-induced stereotyped movements” value (rat [1]) turn out when `CC1CC(c2ccccc2)C(c2ccccc2)C(=O)O1` (centres unmarked) [MDTP, 6-methyl-3,4-diphenyl-3,4,5,6-tetrahydro-2-pyrone] was run?
Answer: did not bring about any change in the stereotyped movements

Question: And the “latency of convulsion-inducing attacks” value [2]?
Answer: did not reduce the latency of the convulsion-inducing attacks

Question: What about the “change in apomorphine-induced stereotyped movements” value (rat [3]) of the same compound?
Answer: did not bring about any change in the sterotyped movements

Question: What about the “change in reserpine-induced hypothermia or palpebral ptosis” value (mice) of the same compound?
Answer: did not produce any change in the hypothermia or palpebral ptosis

Question: And the “change in reserpine-induced hypothermia or palpebral ptosis” value (rats [4])?
Answer: did not produce any change in the hypothermia or palpebral ptosis

Question: What about the “effects of tryptamine (inhibiting effect on monoamine oxidase)” value (monoamine oxidase) of the same compound?
Answer: did not increase the effects of tryptamine

Question: And the “Number of bars passed over after 5 min” value (rat [5]; [7])?
Answer: 131 % of control group

Question: What about the “Number of bars passed over after 10 min” value (rat [5]; [7]) of the same compound?
Answer: 135 % of control group

Question: And the “Number of bars passed over after 15 min” value (rat [5]; [7])?
Answer: 148 % of control group

Question: What about the “Number of bars passed over after 20 min” value (rat [5]; [7]) of the same compound?
Answer: 145 % of control group

Question: What about the “Number of bars passed over after 25 min” value (rat [5]; [7]) of the same compound?
Answer: 144 % of control group

Question: And the “Number of bars passed over after 30 min” value (rat [5]; [7])?
Answer: 133 % of control group

Question: What about the “Number of bars passed over after 5 min” value (rat [5]; [8]) of the same compound?
Answer: 186 % of control group

Question: What about the “Number of bars passed over after 10 min” value (rat [5]; [8]) of the same compound?
Answer: 184 % of control group

Question: And the “Number of bars passed over after 15 min” value (rat [5]; [8])?
Answer: 135 % of control group

Question: And the “Number of bars passed over after 20 min” value (rat [5]; [8])?
Answer: 138 % of control group

Question: What about the “Number of bars passed over after 25 min” value (rat [5]; [8]) of the same compound?
Answer: 155 % of control group

Question: What about the “Number of bars passed over after 30 min” value (rat [5]; [8]) of the same compound?
Answer: 161 % of control group

Question: And the “Number of bars passed over after 5 min” value (rat [5]; [9])?
Answer: 155 % of control group

Question: And the “Number of bars passed over after 10 min” value (rat [5]; [9])?
Answer: 181 % of control group

Question: And the “Number of bars passed over after 15 min” value (rat [5]; [9])?
Answer: 178 % of control group

Question: What about the “Number of bars passed over after 20 min” value (rat [5]; [9]) of the same compound?
Answer: 200 % of control group

Question: And the “Number of bars passed over after 25 min” value (rat [5]; [9])?
Answer: 186 % of control group

Question: What about the “Number of bars passed over after 30 min” value (rat [5]; [9]) of the same compound?
Answer: 195 % of control group

Question: And the “Number of bars passed over after 5 min” value (rat [5]; [10])?
Answer: 210 % of control group

Question: What about the “Number of bars passed over after 10 min” value (rat [5]; [10]) of the same compound?
Answer: 215 % of control group

Question: What about the “Number of bars passed over after 15 min” value (rat [5]; [10]) of the same compound?
Answer: 209 % of control group

Question: And the “Number of bars passed over after 20 min” value (rat [5]; [10])?
Answer: 217 % of control group

Question: What about the “Number of bars passed over after 25 min” value (rat [5]; [10]) of the same compound?
Answer: 215 % of control group

Question: What about the “Number of bars passed over after 30 min” value (rat [5]; [10]) of the same compound?
Answer: 201 % of control group

Question: What about the minimal effective dose (rat [5]; oral, read-out: dose from which increase in motor activity becomes significant) of the same compound?
Answer: 32 mg/kg

Question: What about the “change in cataleptic state” value (rats [6]) of the same compound?
Answer: did not produce any change in the cataleptic state
